What is called IC50 is the concentration that inhibits the measured activity by half.

Here are results for 28 molecules from patent US8859574B2 (IRM LLC, priority 2008, dated 2014).

Structures are written as SMILES.

The target in the test is T1, IGF-1R Ba/F3 (Homo sapiens, UniProt P08069).
T1 construct: fused on or other part: TEL- (or BCR-) IGF-1R in Ba/F3: the kinase part holds the site
T1 sequence (P08069 999-1274 limits assumed): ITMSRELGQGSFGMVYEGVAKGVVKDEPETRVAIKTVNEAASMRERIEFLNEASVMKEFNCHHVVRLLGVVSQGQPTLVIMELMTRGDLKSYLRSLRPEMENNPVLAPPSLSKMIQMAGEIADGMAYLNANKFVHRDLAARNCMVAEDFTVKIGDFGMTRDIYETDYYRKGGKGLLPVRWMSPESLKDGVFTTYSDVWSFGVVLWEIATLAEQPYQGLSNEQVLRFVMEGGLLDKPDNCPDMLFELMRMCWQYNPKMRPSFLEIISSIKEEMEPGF
As to the kind of experiment: Ba/F3 Cell Viability Inhibition Assay (IGF-1R Ba/F3). It counts as cell-based, murine. The following applies: Tel-TK transformed Ba/F3 cells, 48 hours, Britelite luminescence. The method in brief:
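IL-3-independent murine Ba/F3 cells transformed with a TEL/BCR-fused IGF-1R kinase were seeded at 3750 cells/well and exposed to serially diluted compound for 48 h at 37 °C. Viability was read by Britelite luminescence. IC50 is the concentration giving 50% of DMSO-control viability, from a logistic fit.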
As for `COc1cc(Nc2ncc(Cl)c(Nc3cc(C)[nH]n3)n2)c(C)cc1C1CCN(CC(N)=O)CC1` [Compound 262, 2-(4-(4-(5-chloro-4-(5-methyl-1H-pyrazol-3-ylamino)pyrimidin-2-ylamino)-2-methoxy-5-methylphenyl)piperidin-1-yl)acetamide], the IC50 was 19 nM. To `Cc1cc(Nc2nc(Nc3cc(C)c(C4CCN(Cc5cnccn5)CC4)cc3C)ncc2Cl)n[nH]1` [Compound 318, 5-chloro-N2-(2,5-dimethyl-4-(1-(pyrazin-2-ylmethyl)piperidin-4-yl)phenyl)-N4-(5-methyl-1H-pyrazol-3-yl)pyrimidine-2,4-diamine] belongs 10 nM; to `Cc1cc(Nc2nc(Nc3cc(C)c(C4CCN(C(=O)c5c(C)nn(C)c5C)CC4)cc3F)ncc2Cl)n[nH]1` [Compound 129, (4-(4-(5-chloro-4-(5-methyl-1H-pyrazol-3-ylamino)pyrimidin-2-ylamino)-5-fluoro-2-methylphenyl)piperidin-1-yl)(1,3,5-trimethyl-1H-pyrazol-4-yl)methanone], 25 nM; to `Cc1cc(Nc2nc(Nc3cc(C(F)(F)F)c(C4CCN(C)CC4)cc3C)ncc2Cl)n[nH]1` [Compound 218, 5-chloro-N4-(5-methyl-1H-pyrazol-3-yl)-N2-(2-methyl-4-(1-methylpiperidin-4-yl)-5-(trifluoromethyl)phenyl)pyrimidine-2,4-diamine], 26 nM. To `Cc1cc(Nc2ncc(Cl)c(Nc3cc(C4CC4)[nH]n3)n2)c(F)cc1C1CCNCC1` [Compound 17, 5-chloro-N4-(5-cyclopropyl-1H-pyrazol-3-yl)-N2-(2-fluoro-5-methyl-4-(piperidin-4-yl)phenyl)pyrimidine-2,4-diamine] belongs 160 nM; to `COc1cc(Nc2ncc(Cl)c(Nc3cc(C)[nH]n3)n2)c(C)cc1C1CCN(C)CC1` [Compound 219, 5-chloro-N2-(5-methoxy-2-methyl-4-(1-methylpiperidin-4-yl)phenyl)-N4-(5-methyl-1H-pyrazol-3-yl)pyrimidine-2,4-diamine], 9 nM. To `Cc1cc(Nc2nc(Nc3cc(C)c(C4CCN(S(=O)(=O)CCCN5CCOCC5)CC4)cc3C)ncc2Cl)n[nH]1` [Compound 194, 5-Chloro-N^2-(2,5-dimethyl-4-(1-(3-morpholinopropylsulfonyl)piperidin-4-yl)phenyl)-N^4-(5-methyl-1H-pyrazol-3-yl)pyrimidine-2,4-diamine] belongs 13 nM. `Cc1cc(Nc2nc(Nc3cc(C)c(C4CCN(C(=O)c5ccc[nH]5)CC4)cc3F)ncc2Cl)n[nH]1` [Compound 124, (4-(4-(5-chloro-4-(5-methyl-1H-pyrazol-3-ylamino)pyrimidin-2-ylamino)-5-fluoro-2-methylphenyl)piperidin-1-yl)(1H-pyrrol-2-yl)methanone]: it took 145 nM to reach half-maximal inhibition (IC50).

Molecule `Cc1cc(Nc2ncc(Cl)c(Nc3cc[nH]n3)n2)c(OC(C)C)cc1C1CCN(C)CC1` [Compound 161, 5-chloro-N2-(2-isopropoxy-5-methyl-4-(1-methylpiperidin-4-yl)phenyl)-N4-(1H-pyrazol-3-yl)pyrimidine-2,4-diamine] came in with a half-maximal inhibitory concentration (IC50) of 332 nM. For `Cc1cc(Nc2nc(Nc3cc(C)c(C4CCN(S(=O)(=O)CCCN5CC[C@@H](O)C5)CC4)cc3C)ncc2Cl)n[nH]1` [Compound 234, (R)-1-(3-(4-(4-(5-chloro-4-(5-methyl-1H-pyrazol-3-ylamino)pyrimidin-2-ylamino)-2,5-dimethylphenyl)piperidin-1-ylsulfonyl)propyl)pyrrolidin-3-ol], inhibition was half-maximal at 73 nM (IC50). The figure for `Cc1cc(Nc2nc(Nc3cc(C)c(N4CCNCC4=O)cc3C)ncc2Cl)n[nH]1` [Compound 155, 1-(4-(5-chloro-4-(5-methyl-1H-pyrazol-3-ylamino)pyrimidin-2-ylamino)-2,5-dimethylphenyl)piperazin-2-one] is 1650 nM; for `Cc1cc(Nc2nc(Nc3cc(C)c(C4CCN(C(=O)CCCN5CCCC5)CC4)cc3C)ncc2Cl)n[nH]1` [Compound 227, 1-(4-(4-(5-chloro-4-(5-methyl-1H-pyrazol-3-ylamino)pyrimidin-2-ylamino)-2,5-dimethylphenyl)piperidin-1-yl)-4-(pyrrolidin-1-yl)butan-1-one] it is 123 nM. In turn, `Cc1cc(Nc2nc(Nc3cc(C)c(C4CCN(C(=O)C5(N(C)C)CC5)CC4)cc3F)ncc2Cl)n[nH]1` [Compound 94, (4-(4-(5-chloro-4-(5-methyl-1H-pyrazol-3-ylamino)pyrimidin-2-ylamino)-5-fluoro-2-methylphenyl)piperidin-1-yl)(1-(dimethylamino)cyclopropyl)methanone] registered an IC50 of 13 nM. Compared with the last molecule, the IC50 is about 9.5-fold lower. To `CCN1CCC(c2cc(C)c(Nc3ncc(Cl)c(Nc4cc(C)[nH]n4)n3)cc2C(F)(F)F)CC1` [Compound 241, 5-chloro-N2-(4-(1-ethylpiperidin-4-yl)-2-methyl-5-(trifluoromethyl)phenyl)-N4-(5-methyl-1H-pyrazol-3-yl)pyrimidine-2,4-diamine] belongs 68 nM. `Cc1cc(Nc2nc(Nc3cc(C)c(C4CCN(C(=O)C5CCCC(=O)N5)CC4)cc3F)ncc2Cl)n[nH]1` (stereo not shown) [Compound 142, 6-(4-(4-(5-chloro-4-(5-methyl-1H-pyrazol-3-ylamino)pyrimidin-2-ylamino)-5-fluoro-2-methylphenyl)piperidine-1-carbonyl)piperidin-2-one]: the IC50 was determined as 282 nM. The figure for `Cc1cc(Nc2nc(Nc3cc(C)c(C4CCN(C(=O)C5CNC5=O)CC4)cc3F)ncc2Cl)n[nH]1` (stereo not shown) [Compound 119, 3-(4-(4-(5-chloro-4-(5-methyl-1H-pyrazol-3-ylamino)pyrimidin-2-ylamino)-5-fluoro-2-methylphenyl)piperidine-1-carbonyl)azetidin-2-one] is 2990 nM; for `Cc1cc(Nc2nc(Nc3cc(C)c(C4CCN(C(=O)C5(N)CCC5)CC4)cc3C)ncc2Cl)n[nH]1` [Compound 91, (1-aminocyclobutyl)(4-(4-(5-chloro-4-(5-methyl-1H-pyrazol-3-ylamino)pyrimidin-2-ylamino)-2,5-dimethylphenyl)piperidin-1-yl)methanone] it is 52 nM; for `Cc1cc(Nc2nc(Nc3cc(C)c(C4CCN(S(=O)(=O)CCCN5C[C@@H](O)[C@H](O)C5)CC4)cc3C)ncc2Cl)n[nH]1` [Compound 196, (3R,4R)-1-(3-(4-(4-(5-chloro-4-(5-methyl-1H-pyrazol-3-ylamino)pyrimidin-2-ylamino)-2,5-dimethylphenyl)piperidin-1-ylsulfonyl)propyl)pyrrolidine-3,4-diol] it is 370 nM.

In turn, `CNC(=O)CN1CCC(c2cc(F)c(Nc3ncc(Cl)c(Nc4cc(C5CC5)[nH]n4)n3)cc2C)CC1` [Compound 32, 2-(4-(4-(5-chloro-4-(5-cyclopropyl-1H-pyrazol-3-ylamino)pyrimidin-2-ylamino)-5-fluoro-2-methylphenyl)piperidin-1-yl)-N-methylacetamide] had an IC50 of 42 nM. The figure for `CCc1cc(Nc2nc(Nc3cc(C)c(C4CCN(CC(N)=O)CC4)cc3F)ncc2Cl)n[nH]1` [Compound 263, 2-(4-(4-(5-chloro-4-(5-ethyl-1H-pyrazol-3-ylamino)pyrimidin-2-ylamino)-5-fluoro-2-methylphenyl)piperidin-1-yl)acetamide] is 33 nM.

In turn, `Cc1cc(Nc2nc(Nc3cc(C)c(C4CCN(C(=O)c5cnn(C)c5C(F)(F)F)CC4)cc3F)ncc2Cl)n[nH]1` [Compound 130, (4-(4-(5-chloro-4-(5-methyl-1H-pyrazol-3-ylamino)pyrimidin-2-ylamino)-5-fluoro-2-methylphenyl)piperidin-1-yl)(1-methyl-5-(trifluoromethyl)-1H-pyrazol-4-yl)methanone] displayed an IC50 of 61 nM. This IC50 is about 1.8-fold higher than that of the molecule before. In the case of `Cc1cc(Nc2nc(Nc3cc(C)c(C4CCN(C5CCC(=O)CC5)CC4)cc3F)ncc2Cl)n[nH]1` [Compound 290, 4-(4-(4-(5-chloro-4-(5-methyl-1H-pyrazol-3-ylamino)pyrimidin-2-ylamino)-5-fluoro-2-methylphenyl)piperidin-1-yl)cyclohexanone], it took 23 nM to reach half-maximal inhibition (IC50). To `CCc1noc(CN2CCC(c3cc(F)c(Nc4ncc(Cl)c(Nc5cc(C)[nH]n5)n4)cc3C)CC2)n1` [Compound 284, 5-chloro-N2-(4-(1-((3-ethyl-1,2,4-oxadiazol-5-yl)methyl)piperidin-4-yl)-2-fluoro-5-methylphenyl)-N4-(5-methyl-1H-pyrazol-3-yl)pyrimidine-2,4-diamine] belongs 33 nM. As for `Cc1cc(Nc2nc(Nc3cc(C)c(C4CCNCC4)cc3F)ncc2Cl)n[nH]1` [Compound 2, 5-chloro-N2-(2-fluoro-5-methyl-4-(piperidin-4-yl)phenyl)-N4-(5-methyl-1H-pyrazol-3-yl)pyrimidine-2,4-diamine], the 50% inhibitory concentration (IC50) was 50 nM. Compared with the last molecule, the IC50 is about 1.5-fold higher. Consider `Cc1cc(C2CCN(CC(N)=O)CC2)c(C)cc1Nc1ncc(Cl)c(Nc2cc(C3CC3)[nH]n2)n1` [Compound 35, 2-(4-(4-(5-chloro-4-(5-cyclopropyl-1H-pyrazol-3-ylamino)pyrimidin-2-ylamino)-2,5-dimethylphenyl)piperidin-1-yl)acetamide], for which 11 nM corresponded to half-maximal inhibition (IC50). `Cc1cc(Nc2nc(Nc3cc(C)c(C4CCN(C)CC4)cc3F)ncc2Cl)no1` [Compound 159, 5-chloro-N2-(2-fluoro-5-methyl-4-(1-methylpiperidin-4-yl)phenyl)-N4-(5-methylisoxazol-3-yl)pyrimidine-2,4-diamine] yielded a half-maximal inhibitory concentration (IC50) of 73 nM. Compared with the last molecule, the IC50 is about 6.6-fold higher.

On to `Cc1cc(Nc2nc(Nc3cc(C)c(C4CCN(C(=O)CN5CCCC5)CC4)cc3F)ncc2Cl)n[nH]1` [Compound 99, 1-(4-(4-(5-chloro-4-(5-methyl-1H-pyrazol-3-ylamino)pyrimidin-2-ylamino)-5-fluoro-2-methylphenyl)piperidin-1-yl)-2-(pyrrolidin-1-yl)ethanone], for which the IC50 is 38 nM. This IC50 is about 1.9-fold lower than that of the molecule before. Molecule `Cc1cc(Nc2nc(Nc3cc(C)c(C4CCN(CC5CC5(F)F)CC4)cc3F)ncc2Cl)n[nH]1` (stereo not shown) [Compound 235, 5-chloro-N-(4-(1-((2,2-difluorocyclopropyl)methyl)piperidin-4-yl)-2-fluoro-5-methylphenyl)-N^4-(5-methyl-1H-pyrazol-3-yl)pyrimidine-2,4-diamine] displayed an IC50 of 63 nM.
